Key:
Format in all cases: in vivo
[1] = system: dogs suffering from seizures; experiment: Example 6: seizures in dogs; conditions: seizure scale 1 (seizure-free) to 10 (daily or multiple seizures); for Initial Score: day 0; for Final Score: day 60, BID
From the text: This example examines the ability of embodiments of the invention versus phenobarbital to treat seizures.
(§1) The patient group is twenty-four dogs suffering from seizures as diagnosed by their referring veterinarian. The patient group is broken into six groups of four animals. The first group receives phenobarbital as the sole active agent; the second group receives a composition comprising phenobarbital and Keppra®; the third group receives a composition comprising HMW HA as the sole active agent; the fourth group receives a composition comprising CBD as the sole active agent; the fifth group receives a composition comprising HMW HA and CBD as the active agents; and the sixth group receives a composition comprising HMW HA, CBD, valerian root, and scutillaria as the active agents.
Each composition is administered for a period of sixty (60) days, BID. Each dog is evaluated on days 0 (“Initial Score”), 15, 30, 45, and 60 (“Final Score”) of treatment. The results are averaged and characterized on a scale of 1 (seizure-free) to 10 (daily seizures or multiple seizures during the event).
The following canine scores are observed and the results depicted in FIG. 6: […]

[2] = system: horses suffering from joint inflammation; experiment: Example 4: joint inflammation, thermal imaging (equine); conditions: over the inflamed joint, 60 days BID
From the text: (§2) This example examines the ability of embodiments of the invention versus Cosequin® to treat joint inflammation.
(§3) The first patient group is twenty dogs suffering from joint inflammation. The second patient group is twenty cats suffering from joint inflammation. The third patient group is twenty horses suffering from joint inflammation. Each patient group is broken into five groups of four animals. The first groups receive Cosequin® as the sole active agent; the second groups receive a composition comprising HMW HA as the sole active agent; the third groups receive a composition comprising CBD as the sole active agent; the fourth groups receive a composition comprising HMW HA and CBD as the active agents; and the fifth groups receive a composition comprising HMW HA, CBD, Boswellia, and superoxide dismutase (“SOD”) as the active agents.
(§4) Each composition is administered for a period of sixty (60) days, BID. Efficacy is determined by a decrease in body temperature over the inflamed joint, as measured by thermal imaging (e.g., via Digatherm device). Thermal imaging is performed on days 0 (“Initial Score”), 15, 30, 45, and 60 (“Final Score”) of treatment.
The following equine scores are observed and the results depicted in FIG. 4c: […]

[3] = system: dogs suffering from GI-specific inflammation; experiment: Example 11: GI-specific inflammation, owner-rated symptom reduction (canine, CBD Complex); conditions: canine (FIG. 11a), symptom reduction score 0 (no reduction) to 4 (resolution of symptoms); for Final Score: after 28 days BID
From the text: This example examines the ability of embodiments of the invention versus Pepcid® to treat unwanted GI-specific inflammation characterized by gastritis, reflux, vomiting, diarrhea, and inappetence.
The first patient group is twenty dogs suffering from GI-specific inflammation. The second patient group is twenty cats suffering from GI-specific inflammation. Each patient group is broken into five groups of four animals. The first groups receive Pepcid® as the sole active agent; the second groups receive a composition comprising HMW HA as the sole active agent; the third groups receive a composition comprising CBD as the sole active agent; the fourth groups receive a composition comprising HMW HA and CBD Complex as the active agents; and the fifth groups receive a composition comprising HMW HA, CBD Complex, and glutathione as the active agents.
Each composition is administered for a period of twenty-eight (28) days, BID. The owner observes potential reduction of symptoms at the end of treatment and rates the reduction as no reduction (score of 0), mild reduction (score of 1), moderate reduction (score of 2), significant reduction (score of 3), or resolution of symptoms (score of 4).

[4] = system: dogs suffering from cognitive dysfunction syndrome; experiment: Example 2: cognitive decline, Cognitive Dysfunction Screening Checklist; conditions: for Average Initial Score: day 0 (before treatment); for Average Final Score: day 60, BID
From the text: This example examines the ability of embodiments of the invention versus Anipryl® to treat cognitive decline.
The patient group is twenty dogs suffering from cognitive dysfunction syndrome, as determined by the Cognitive Dysfunction Screening Checklist. See G. Landsberg et al., 2003 HANDBOOK OF BEHAVIOR PROBLEMS OF THE DOG AND CAT (Elsevier Science Limited) (2003). The twenty dogs are broken into five groups of four dogs. The first group receives Anipryl® as the sole active agent; the second group receives a composition comprising HMW HA as the sole active agent; the third group receives a composition comprising CBD as the sole active agent; the fourth group receives a composition comprising HMW HA and CBD as the active agents; and the fifth group receives a composition comprising HMW HA, CBD, nicotinamide adenine dinucleotide (“NAD”), and phosphatidylserine as the active agents.
Each composition is administered for a period of sixty (60) days, twice per day (“BID”). The owner completes the Checklist on days 0 (“Initial Score”), 15, 30, 45, and 60 (“Final Score”) of treatment.
Each group is evaluated and Checklist scores averaged. The following scores are observed and the results depicted in FIG. 2: […]

[5] = system: dogs suffering from heart failure; experiment: Example 7: heart failure in dogs; conditions: heart failure scale 1 (few to no clinical signs) to 10 (severe); for Initial Score: day 0; for Final Score: day 90, BID
From the text: This example examines the ability of embodiments of the invention versus enalapril to treat heart failure.
The patient group is twenty-four dogs suffering from heart failure.
as §1, with “The” for “The patient group is twenty-four dogs suffering from seizures as diagnosed by their referring veterinarian. The”, “dogs.” for “animals.”, “enalapril” for “phenobarbital”, “Lasix®;” for “Keppra®;”, “liposomal CoQ10, hawthorn berry,” for “valerian root,”, “ginko biloba” for “scutillaria”
Each composition is administered for a period of ninety (90) days, BID. Each animal is evaluated on days 0 (“Initial Score”), 30, 60, and 90 (“Final Score”) of treatment. The results are averaged and characterized on a scale of 1 (few to no clinical signs of heart failure) to 10 (severe heart failure).
The following canine scores are observed and the results depicted in FIG. 7: […]

[6] = system: cats suffering from joint inflammation; experiment: Example 4: joint inflammation, thermal imaging (feline); conditions: over the inflamed joint, 60 days BID
From the text: as §2, §3, §4
The following feline scores are observed and the results depicted in FIG. 4b: […]

Molecule	Initial Score [1]	Final Score [1]	Reduction in Temperature (° F.) [2]	Final Score [3]	Initial Score [3]	Average Initial Score [4]	Average Final Score [4]	Initial Score [5]	Final Score [5]	Reduction in Temperature (° F.) [6]
C=C(C)[C@@H]1CCC(C)=C[C@H]1c1c(O)cc(CCCCC)cc1O [CBD Alone, 2-[(1R,6R)-3-methyl-6-prop-1-en-2-ylcyclohex-2-en-1-yl]-5-pentylbenzene-1,3-diol]	9	4	1.6 ° F.	2	0	3	1.5	8	4	2.0 ° F.
hyaluronic acid [HMW HA Alone]	9	5	2.1 ° F.	3	0	3	2	8	4	2.3 ° F.
